Data as given in PubChem BioAssay AID449762 (Southern Research Specialized Biocontainment Screening …, 2010).
Results filed as inconclusive are left out.

Test system: M. tuberculosis H37Rv growth inhibition, 7H9 media
Assay: M. tuberculosis growth inhibition, HTS (AID 449762);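 note: bacterial growth assessed after seven days of incubation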
Details: for IC90: measured here: IC90 growth inhibition

Cc1ccccc1N1CCN(C(=O)c2ccc(Oc3ccc(C(F)(F)F)cn3)cc2)CC1
IC50: 24.4 µM
IC90: 60.5 µM

O=C(Oc1ccccc1-c1nnco1)c1ccc(Cl)cc1
IC50: 10.3 µM
IC90: 44.7 µM

CCCC12CN3CC(CCC)(CN(C1)C3c1ccccn1)C2=O (configuration not stated)
IC50: 1.02 µM
IC90: 18.1 µM

CCCN(CCC)CCNC(=O)c1cc2c(-c3ccc(Cl)cc3)nn(C)c2s1
IC50: 19.5 µM
IC90: 27.7 µM

Cc1nn(-c2ccccc2)c2c1C(c1ccc([N+](=O)[O-])cc1)N1C(=N2)C(=O)Nc2ccccc21 (configuration not stated)
IC50: 41.4 µM
IC90: > 100 µM

CN1/C(=C\C(=O)C[n+]2ccc(C(=O)c3ccccc3)cc2)C(C)(C)c2ccccc21
IC50: 7.85 µM
IC90: 15.3 µM

COc1ccc([C@H]2CC(=O)C=C(c3ccc4c5c(cccc35)CC4)C2)cc1
IC50: 11 µM
IC90: 23 µM

Cc1nn(-c2ccccc2)nc1C(=O)c1c(C)[nH]n(-c2ccccc2)c1=O
IC50: 9.7 µM
IC90: 18.7 µM

O=C(COC(=O)C1=COCCO1)Nc1cccc(Oc2ccccc2)c1
IC50: 5.18 µM
IC90: 55.4 µM

Cc1cccc(NS(=O)(=O)c2ccc(C(=O)N3CCN(c4ccccc4O)CC3)cc2)c1C
IC50: 75.3 µM
IC90: > 100 µM

CC(C)OC(=O)c1ccc(COC(=O)c2cnccn2)cc1
IC50: 7.68 µM
IC90: > 100 µM

COc1ccc(SC[C@H](Cc2ccccc2)N2CCN(CCc3ccccc3)CCC2=O)cc1
IC50: 36.8 µM
IC90: 46.7 µM

COc1ccc(N=c2ssnc2Cl)cc1
IC50: 38.9 µM
IC90: > 100 µM

CCCn1c(=N)n(CC(=O)c2ccc(OCC(=O)OC)cc2)c2ccccc21
IC50: 11.1 µM
IC90: 43.6 µM

CCOC(=O)C1(CCOc2ccccc2)CCN(Cc2cccc(-n3cccn3)c2)CC1
IC50: 25.4 µM
IC90: 28.8 µM

CCOc1ccc(/C=N/OCC(=O)Nc2cc(C)on2)cc1
IC50: 29.4 µM
IC90: > 100 µM

O=C(c1cc2ccccc2o1)N1CCN(S(=O)(=O)c2ccc(Cl)s2)CC1
IC50: 4.01 µM
IC90: 13.1 µM

Cc1cc2c(cc1C)CSC(c1c(O)ccc3ccccc13)SC2
IC50: 45.3 µM
IC90: > 100 µM

CC1Cc2cc(-c3csc(NC(=O)Cc4cccs4)n3)ccc2N1S(C)(=O)=O (configuration not stated)
IC50: 10.6 µM
IC90: 38 µM

Cc1cc2nc(C3CCN(CC4COc5ccccc5O4)CC3)[nH]c2cc1C (configuration not stated)
IC50: 15.5 µM
IC90: 25.4 µM

CC(C)(C)C(=O)N1CCN(c2ccc(NC(=O)c3ccc([N+](=O)[O-])o3)cc2)CC1
IC50: < 0.2 µM
IC90: < 0.2 µM

CCOC(=O)c1ccc(NC2=CC(=O)C(=O)c3ccccc32)cc1
IC50: 31.7 µM
IC90: 39.7 µM

O=[N+]([O-])c1cc(Cl)c(O)c(-[n+]2c(-c3ccccc3)cc(-c3ccccc3)cc2-c2ccccc2)c1
IC50: 2.32 µM
IC90: 5.36 µM

CC1(O)CC(c2ccc(Cl)cc2)=NN1C(=O)c1ccc([N+](=O)[O-])cc1 (configuration not stated)
IC50: 17.5 µM
IC90: > 100 µM

C#CCOCCOCCOCCNc1nc(N2CCN(C(=O)CCCCCCCCCCNC(=O)[C@H](CCCCN)n3cc(CCCC(=O)O)nn3)CC2)nc(N2CCN(C(=O)CCCCCCCCCCNC(=O)[C@H](CCCN=C(N)N)n3cc(C[C@@H](C)CC)nn3)CC2)n1
IC50: 4.78 µM
IC90: 5.97 µM

Cc1ccc(C(=O)O/N=C\c2ccc(N3CCCCC3)c([N+](=O)[O-])c2)cc1
IC50: 22.1 µM
IC90: 49 µM

CC1(C)CC(=O)C2=C(C1)NC(Nc1nc3ccccc3o1)=NC2c1ccccn1 (configuration not stated)
IC50: < 0.2 µM
IC90: 2.31 µM

Cc1ccccc1NC(=O)Cc1nc(COC(=O)/C=C/c2ccccc2)cs1
IC50: 40.3 µM
IC90: 63 µM

CCOc1ccc(/C=N/Nc2ccc(Cl)nn2)c(O)c1
IC50: 4.49 µM
IC90: 7.48 µM

COc1cc(C(=O)N/N=C/c2cc([N+](=O)[O-])cs2)cc(OC)c1OC
IC50: < 0.2 µM
IC90: 25.9 µM

COc1cc(NC(=O)c2cccs2)c(C(=O)OCC(=O)NCc2ccco2)cc1OC
IC50: 23.9 µM
IC90: > 100 µM

Brc1cccc2sc(N3CCN(c4ccccc4)CC3)nc12
IC50: 44.5 µM
IC90: > 100 µM

CCc1ccc(N=C2NC(=O)/C(=C/c3cc(OC)c(O)c(OC)c3)S2)cc1
IC50: 33.2 µM
IC90: > 100 µM

COc1ccc(NCc2nc3ccccc3n2CCOc2ccccc2)cc1
IC50: 44.8 µM
IC90: 50.6 µM

COc1cc2c(cc1OC)C1(Nc3c-2c(-c2ccccc2)nn3-c2ccccc2)C(=O)Nc2ccccc21 (configuration not stated)
IC50: 90.5 µM
IC90: > 100 µM

CCN(CC)C(=O)c1cc([N+](=O)[O-])cc2c1-c1ccc([N+](=O)[O-])cc1C2=C(C#N)C#N
IC50: 21.3 µM
IC90: 23.8 µM

O=[N+]([O-])c1ncccc1Oc1nc(-c2cccnc2)nc2ccccc12
IC50: < 0.2 µM
IC90: 1.36 µM

CN(C(=O)COC(=O)c1sc2ccccc2c1Cl)C1CCCCC1
IC50: 4.8 µM
IC90: 15 µM

CCOC(=O)Oc1c(OC)cc(C(=O)O[C@@H]2C[C@@H]3CN4CCc5c([nH]c6cc(OC)ccc56)[C@H]4C[C@@H]3[C@H](C(=O)OC)[C@H]2OC)cc1OC
IC50: 19.7 µM
IC90: 27.3 µM

COc1ccccc1N(C)S(=O)(=O)c1ccc(C(=O)Nc2ccc3nc(C)sc3c2)cc1
IC50: 58.2 µM
IC90: > 100 µM

O=C(Nc1ccc(OCC(F)(F)C(F)F)c(C(F)(F)F)c1)c1ccc(Cl)cc1
IC50: 35.6 µM
IC90: 47.1 µM

Cc1ccc(/C=C2\C(=O)Nc3ccccc32)o1
IC50: 3.54 µM
IC90: 6.03 µM

CCCCC(CC)CN=C(N)NC(N)=NCCCCCCN=C(N)NC(N)=NCC(CC)CCCC (configuration not stated)
IC50: 3.61 µM
IC90: 4.76 µM

CCCc1ccc(NC(=O)C2CCN(c3cnccn3)CC2)cc1
IC50: 53.9 µM
IC90: 78.7 µM

CN1CCN(c2ccc(C(=O)c3cn(-c4ccc(F)c(Cl)c4)nn3)cc2)CC1
IC90: > 100 µM

O=C1c2cccc3c([N+](=O)[O-])ccc(c23)C(=O)N1O
IC50: 8.11 µM
IC90: 13.8 µM

Cc1ccc(-n2nc3c(N4CCC(C(=O)NCc5ccccc5C)CC4)nnc(C)c3c2C)cc1
IC50: 46.9 µM
IC90: 69 µM

Nc1ccc(C(=O)OCCCc2nc3cc4ccccc4cc3[nH]2)cc1
IC50: 45.6 µM
IC90: 51.7 µM

COc1ccc(CNC[C@@H](CCCCN(C)Cc2ccc(OC)cc2)N2C[C@H](c3ccccc3)N(CCc3ccc(Cl)c(Cl)c3)C(=O)C2=O)cc1
IC50: 5.48 µM
IC90: 8.71 µM

C/C(=N/Nc1ccnc2cc(Cl)ccc12)c1ccc(O)cc1
IC50: 23.7 µM
IC90: 27.2 µM

CC(C)NCC(O)c1ccc(O)c(O)c1 (configuration not stated)
IC90: > 100 µM

CCCc1cc(-c2nc(N)ncc2-c2ccc3c(c2)OCCCO3)c(O)cc1OC
IC50: 48.6 µM
IC90: 54.9 µM

Cc1nc(N)nc(N)c1CCCc1ccc(Cl)c(Cl)c1
IC50: 78.2 µM
IC90: > 100 µM

N=C1C(c2nc3ccccc3[nH]2)=C(O)CN1NC(=O)c1c[nH]c2ccccc12
IC50: 13.5 µM
IC90: 30.7 µM

CC(c1ccccc1)N1CCN(C(=O)CCl)CC1 (configuration not stated)
IC50: 1.26 µM
IC90: 3.24 µM

COC(=O)C1=C(C)NC(=O)/C1=C\c1cc(C)n(-c2cccc(C)c2)c1C
IC90: > 100 µM

CC(=O)c1cccc(NC(=S)NC2CCCCCCC2)c1
IC50: 23.6 µM
IC90: 26.2 µM

COc1ccc(CN2CCCC(C(=O)c3ccc(SC)cc3)C2)cc1Cn1cccn1 (configuration not stated)
IC50: 23.9 µM
IC90: 26.6 µM

CCN1C(=NCCc2ccc(Br)cc2)N[C@@H](c2ccccc2)[C@H](C(=O)OC)[C@H]1C
IC50: 16.7 µM
IC90: 22.1 µM

COc1ccc(Nc2nc(N3CCCCC3)nc3ccccc23)c(OC)c1
IC50: 19.1 µM
IC90: 26.5 µM
